IC50 data for two compounds are collected here from PMC8341977, “Towards novel herbicide modes of action by inhibiting lysine biosynthesis in plants” (eLife, 2021).

For test [1], the target named is T1, AtDHDPS2 (dihydrodipicolinate synthase 2) (Arabidopsis thaliana, UniProt Q9FVC8).
T1 construct: gene DHDPS2; recombinant, fusion tag cleaved
T1 sequence (Q9FVC8 40-365): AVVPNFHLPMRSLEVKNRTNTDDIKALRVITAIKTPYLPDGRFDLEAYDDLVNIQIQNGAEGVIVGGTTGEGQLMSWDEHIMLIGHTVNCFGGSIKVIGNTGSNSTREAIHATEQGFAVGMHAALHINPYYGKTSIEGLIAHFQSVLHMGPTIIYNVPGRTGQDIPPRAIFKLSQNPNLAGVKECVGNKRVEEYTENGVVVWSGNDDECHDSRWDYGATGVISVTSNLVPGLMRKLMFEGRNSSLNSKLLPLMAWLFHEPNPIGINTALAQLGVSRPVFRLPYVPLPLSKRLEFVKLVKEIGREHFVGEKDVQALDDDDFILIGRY
Kind of test: DHDPS–DHDPR coupled enzyme assay (NADPH oxidation). The class given is biochemical.

For test [2], the target named is T2, AtDHDPS1 (dihydrodipicolinate synthase 1) (Arabidopsis thaliana, UniProt Q9LZX6).
T2 construct: gene DHDPS1; recombinant, fusion tag cleaved
T2 sequence (Q9LZX6 40-365): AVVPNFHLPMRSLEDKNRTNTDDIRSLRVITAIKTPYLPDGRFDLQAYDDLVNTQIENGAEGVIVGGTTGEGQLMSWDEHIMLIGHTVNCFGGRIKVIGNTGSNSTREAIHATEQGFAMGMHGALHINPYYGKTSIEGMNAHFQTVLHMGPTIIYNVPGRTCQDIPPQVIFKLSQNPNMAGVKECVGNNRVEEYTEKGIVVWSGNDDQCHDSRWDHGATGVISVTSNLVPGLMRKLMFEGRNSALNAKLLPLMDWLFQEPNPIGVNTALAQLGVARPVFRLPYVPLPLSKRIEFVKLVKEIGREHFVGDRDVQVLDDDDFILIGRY
The experiment in a line: DHDPS–DHDPR coupled enzyme assay (NADPH oxidation). It is filed as biochemical.

Structures are written as SMILES. Read-outs that look alike come from different tables or passages of the source.

`COc1ccc(C=C2SC(=O)N(CC(=O)O)C2=O)cc1` (stereo in doubt) [MBDTA-2, (Z)−2-(5-(4-methoxybenzylidene)−2,4-dioxothiazolidin-3-yl)acetic acid] had an IC50 in test [1] of 64 ± 1 µM.

Turning to `COc1ccccc1/C=C1\SC(=O)N(CC(=O)O)C1=O` [MBDTA-1, (Z)−2-(5-(2-methoxybenzylidene)−2,4-dioxothiazolidin-3-yl)acetic acid], the 50% inhibitory concentration (IC50) worked out at 126 ± 6.5 µM in test [2] and 116 ± 5.2 µM in test [1] (read-out: IC50).

One may read the IC50 as the concentration that inhibits the measured activity by half.
